The text below walks through data of the supplement of paper PMC10307832.

One assay concerns NCI-H1975. Put plainly: relative viability (nuclei count vs DMSO), 5 days (fraction); higher = more cells survive. As to conditions: first compound 2 µM. An outline of the steps:
(§1)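 Lung cancer cell lines were seeded in 1536-well plates and dosed by pin tool the next day, with either a single drug or a fixed anchor-drug dose combined with five library-drug doses (not always all listed) spaced in √10 steps. Five days later, one step fixed the cells and stained their nuclei (final 0.05% Triton X-100, 1% formaldehyde, 1 ug/ml Hoechst), and nuclei were counted on 4× images. Relative viability is the nuclei count in treated wells divided by the count in vehicle wells, and each value is the median of duplicate plates.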
`COCC1(CO)C(=O)C2CCN1CC2` (stereo not given) [PRIMA-1MET] + Nc1ncn([C@H]2C[C@H](O)[C@@H](CO)O2)c(=O)n1 [Decitabine] (partner 2 µM) displayed a relative viability of 0.343.

In the case of `COCC1(CO)C(=O)C2CCN1CC2` (stereo not given) [PRIMA-1MET] + O=C(c1cc(Cc2n[nH]c(=O)c3ccccc23)ccc1F)N1CCN(C(=O)C2CC2)CC1 [Olaparib] (partner 8 µM), the relative viability came out at 0.775.

As to `COCC1(CO)C(=O)C2CCN1CC2` (stereo not given) [PRIMA-1MET] + C[C@@H](Oc1cc(-c2cnn(C3CCNCC3)c2)cnc1N)c1c(Cl)ccc(F)c1Cl [Crizotinib] (partner 1 µM), the relative viability was 0.938.

Staying with this assay, now noted: first compound 6.325 µM.
Take `COCC1(CO)C(=O)C2CCN1CC2` (stereo not given) [PRIMA-1MET] + CC(C)C[C@H](NC(=O)[C@H](Cc1ccccc1)NC(=O)c1cnccn1)B(O)O [Bortezomib] (partner 0.002 µM): the relative viability amounted to 0.4.

For `COCC1(CO)C(=O)C2CCN1CC2` (stereo not given) [PRIMA-1MET] + CC(=O)Nc1cccc(-n2c(=O)n(C3CC3)c(=O)c3c(Nc4ccc(I)cc4F)n(C)c(=O)c(C)c32)c1 [Trametinib] (partner 0.02 µM), the relative viability came to 0.351.

`COCC1(CO)C(=O)C2CCN1CC2` (stereo not given) [PRIMA-1MET] + Nc1ncn([C@H]2C[C@H](O)[C@@H](CO)O2)c(=O)n1 [Decitabine] (partner 2 µM) gave a relative viability of 0.431.

For the compound `COCC1(CO)C(=O)C2CCN1CC2` (stereo not given) [PRIMA-1MET] + O=C(c1cc(Cc2n[nH]c(=O)c3ccccc23)ccc1F)N1CCN(C(=O)C2CC2)CC1 [Olaparib] (partner 8 µM), the relative viability is 0.847.

`COCC1(CO)C(=O)C2CCN1CC2` (stereo not given) [PRIMA-1MET] + C[C@@H](Oc1cc(-c2cnn(C3CCNCC3)c2)cnc1N)c1c(Cl)ccc(F)c1Cl [Crizotinib] (partner 1 µM): the relative viability stood at 0.939.

Still in this assay, the particulars now being: first compound 20 µM.
`COCC1(CO)C(=O)C2CCN1CC2` (stereo not given) [PRIMA-1MET] + CC(C)C[C@H](NC(=O)[C@H](Cc1ccccc1)NC(=O)c1cnccn1)B(O)O [Bortezomib] (partner 0.002 µM) yielded a relative viability of 0.419.

On to `COCC1(CO)C(=O)C2CCN1CC2` (stereo not given) [PRIMA-1MET] + CC(=O)Nc1cccc(-n2c(=O)n(C3CC3)c(=O)c3c(Nc4ccc(I)cc4F)n(C)c(=O)c(C)c32)c1 [Trametinib] (partner 0.02 µM), for which the relative viability came to 0.457.

In turn, `COCC1(CO)C(=O)C2CCN1CC2` (stereo not given) [PRIMA-1MET] + Nc1ncn([C@H]2C[C@H](O)[C@@H](CO)O2)c(=O)n1 [Decitabine] (partner 2 µM) came in with a relative viability of 0.371.

Consider `COCC1(CO)C(=O)C2CCN1CC2` (stereo not given) [PRIMA-1MET] + O=C(c1cc(Cc2n[nH]c(=O)c3ccccc23)ccc1F)N1CCN(C(=O)C2CC2)CC1 [Olaparib] (partner 8 µM), for which the relative viability amounted to 0.616.

Consider `COCC1(CO)C(=O)C2CCN1CC2` (stereo not given) [PRIMA-1MET] + C[C@@H](Oc1cc(-c2cnn(C3CCNCC3)c2)cnc1N)c1c(Cl)ccc(F)c1Cl [Crizotinib] (partner 1 µM), for which the relative viability was found to be 0.828.

A further assay relates to NCI-H647. The assay is described as above. The following applies: first compound 0.2 µM. An outline of the steps:
as §1
In turn, `COCC1(CO)C(=O)C2CCN1CC2` (stereo not given) [PRIMA-1MET] + CC(C)C[C@H](NC(=O)[C@H](Cc1ccccc1)NC(=O)c1cnccn1)B(O)O [Bortezomib] (partner 0.002 µM) had a relative viability of 1.19.

`COCC1(CO)C(=O)C2CCN1CC2` (stereo not given) [PRIMA-1MET] + CC(=O)Nc1cccc(-n2c(=O)n(C3CC3)c(=O)c3c(Nc4ccc(I)cc4F)n(C)c(=O)c(C)c32)c1 [Trametinib] (partner 0.02 µM): the relative viability is 0.306.

On to `COCC1(CO)C(=O)C2CCN1CC2` (stereo not given) [PRIMA-1MET] + Nc1ncn([C@H]2C[C@H](O)[C@@H](CO)O2)c(=O)n1 [Decitabine] (partner 2 µM), for which the relative viability came out at 0.403.

Turning to `COCC1(CO)C(=O)C2CCN1CC2` (stereo not given) [PRIMA-1MET] + O=C(c1cc(Cc2n[nH]c(=O)c3ccccc23)ccc1F)N1CCN(C(=O)C2CC2)CC1 [Olaparib] (partner 8 µM), the relative viability was 0.461.

`COCC1(CO)C(=O)C2CCN1CC2` (stereo not given) [PRIMA-1MET] + C[C@@H](Oc1cc(-c2cnn(C3CCNCC3)c2)cnc1N)c1c(Cl)ccc(F)c1Cl [Crizotinib] (partner 1 µM) displayed a relative viability of 1.

Staying with this assay, now noted: first compound 0.6325 µM.
Compound `COCC1(CO)C(=O)C2CCN1CC2` (stereo not given) [PRIMA-1MET] + CC(C)C[C@H](NC(=O)[C@H](Cc1ccccc1)NC(=O)c1cnccn1)B(O)O [Bortezomib] (partner 0.002 µM) displayed a relative viability of 1.06.

For the compound `COCC1(CO)C(=O)C2CCN1CC2` (stereo not given) [PRIMA-1MET] + CC(=O)Nc1cccc(-n2c(=O)n(C3CC3)c(=O)c3c(Nc4ccc(I)cc4F)n(C)c(=O)c(C)c32)c1 [Trametinib] (partner 0.02 µM), the relative viability came to 0.537.

Regarding `COCC1(CO)C(=O)C2CCN1CC2` (stereo not given) [PRIMA-1MET] + Nc1ncn([C@H]2C[C@H](O)[C@@H](CO)O2)c(=O)n1 [Decitabine] (partner 2 µM), the relative viability is 0.236.

`COCC1(CO)C(=O)C2CCN1CC2` (stereo not given) [PRIMA-1MET] + O=C(c1cc(Cc2n[nH]c(=O)c3ccccc23)ccc1F)N1CCN(C(=O)C2CC2)CC1 [Olaparib] (partner 8 µM) had a relative viability of 0.614.

Turning to `COCC1(CO)C(=O)C2CCN1CC2` (stereo not given) [PRIMA-1MET] + C[C@@H](Oc1cc(-c2cnn(C3CCNCC3)c2)cnc1N)c1c(Cl)ccc(F)c1Cl [Crizotinib] (partner 1 µM), the relative viability stood at 1.24.

Still in this assay, the particulars now being: first compound 2 µM.
In the case of `COCC1(CO)C(=O)C2CCN1CC2` (stereo not given) [PRIMA-1MET] + CC(C)C[C@H](NC(=O)[C@H](Cc1ccccc1)NC(=O)c1cnccn1)B(O)O [Bortezomib] (partner 0.002 µM), the relative viability was 0.876.

Regarding `COCC1(CO)C(=O)C2CCN1CC2` (stereo not given) [PRIMA-1MET] + CC(=O)Nc1cccc(-n2c(=O)n(C3CC3)c(=O)c3c(Nc4ccc(I)cc4F)n(C)c(=O)c(C)c32)c1 [Trametinib] (partner 0.02 µM), the relative viability came out at 0.279.

The compound `COCC1(CO)C(=O)C2CCN1CC2` (stereo not given) [PRIMA-1MET] + Nc1ncn([C@H]2C[C@H](O)[C@@H](CO)O2)c(=O)n1 [Decitabine] (partner 2 µM) had a relative viability of 0.353.

With `COCC1(CO)C(=O)C2CCN1CC2` (stereo not given) [PRIMA-1MET] + O=C(c1cc(Cc2n[nH]c(=O)c3ccccc23)ccc1F)N1CCN(C(=O)C2CC2)CC1 [Olaparib] (partner 8 µM), the relative viability was determined as 0.722.

Compound `COCC1(CO)C(=O)C2CCN1CC2` (stereo not given) [PRIMA-1MET] + C[C@@H](Oc1cc(-c2cnn(C3CCNCC3)c2)cnc1N)c1c(Cl)ccc(F)c1Cl [Crizotinib] (partner 1 µM) returned a relative viability of 1.09.

The assay is the same for the next values; noted with them: first compound 6.325 µM.
With `COCC1(CO)C(=O)C2CCN1CC2` (stereo not given) [PRIMA-1MET] + CC(C)C[C@H](NC(=O)[C@H](Cc1ccccc1)NC(=O)c1cnccn1)B(O)O [Bortezomib] (partner 0.002 µM), the relative viability came to 1.17.

Compound `COCC1(CO)C(=O)C2CCN1CC2` (stereo not given) [PRIMA-1MET] + CC(=O)Nc1cccc(-n2c(=O)n(C3CC3)c(=O)c3c(Nc4ccc(I)cc4F)n(C)c(=O)c(C)c32)c1 [Trametinib] (partner 0.02 µM) yielded a relative viability of 0.456.
